Results: patent US4795748A, “Antibacterial 7-oxo-4-thia-1-azabicyclo[3,2,0]hept-2-ene derivatives” (Hoechst UK Limited, priority 1984, dated 1989)
≈ marks a conversion by molar mass, not a printed value.

Legend:
Format in all cases: cell-based
[1] = test system: a variety of microorganisms, particularly β-lactamase producing organisms; test: antibacterial activity compared with the corresponding unsubstituted 3-phenoxy compound; conditions: against a variety of microorganisms
Experimental: (§1) The antimicrobial activity was determined by measuring the Minimum Inhibitory Concentration (MIC). The MIC of the compounds was determined by a standard test, the "agar dilution test" according to Lorian (Antibioticsin Laboratory Medicine, Williams and Wilkins, Baltimore/London 1980) as follows:
(§2) A two-fold decreasing concentration series of each compound was prepared in Petri dishes containing 15 ml of Mueller Hinton agar (Difco). One Petri dish containing only the Mueller Hinton agar served as control for bacterial growth. Each Petri dish was inoculated with a multi-point inoculator (Denley), which transfered 0.6 μl of a 1:100 diluted 18 hours culture of the appropriate test bacterium. After 16 to 18 hours of incubation at 37° C., the Petri dishes were examined for growth of bacteria. The lowest concentration of the compound which causes complete inhibition of growth is taken as the MIC.

Ent. cloacae 1321 E = test: agar dilution test, MIC, Ent. cloacae 1321 E; conditions: Enterobacter cloacae, Mueller Hinton agar, 16 to 18 hours, 37° C., read-out: Minimum Inhibitory Concentration
Experimental: as §1, §2

Salm. typhimurium MZ II = test: agar dilution test, MIC, Salm. typhimurium MZ II; conditions: Salmonella enterica, Mueller Hinton agar, 16 to 18 hours, 37° C., read-out: Minimum Inhibitory Concentration
Experimental: as §1, §2

Kl. aerog. 1082 E = test: agar dilution test, MIC, Kl. aerog. 1082 E; conditions: Mueller Hinton agar, 16 to 18 hours, 37° C., read-out: Minimum Inhibitory Concentration
Experimental: as §1, §2

Staph. aureus SG 511 = test: agar dilution test, MIC, Staph. aureus SG 511; conditions: Staphylococcus aureus, SG511, Mueller Hinton agar, 16 to 18 hours, 37° C., read-out: Minimum Inhibitory Concentration
Experimental: as §1, §2

Str. faecium D = test: agar dilution test, MIC, Str. faecium D; conditions: Enterococcus faecium, Mueller Hinton agar, 16 to 18 hours, 37° C., read-out: Minimum Inhibitory Concentration
Experimental: as §1, §2

E. coli TEM = test: agar dilution test, MIC, E. coli TEM; conditions: Escherichia coli, 18 h, read-out: Minimum Inhibitory Concentration
Experimental: as §1, §2

E. coli KN 126 = test: agar dilution test, MIC, E. coli KN 126; conditions: Escherichia coli, KN126, Mueller Hinton agar, 16 to 18 hours, 37° C., read-out: Minimum Inhibitory Concentration
Experimental: as §1, §2

Staph. aureus 503 = test: agar dilution test, MIC, Staph. aureus 503; conditions: Staphylococcus aureus, Mueller Hinton agar, 16 to 18 hours, 37° C., read-out: Minimum Inhibitory Concentration
Experimental: as §1, §2

Str. pyogenes 308 A = test: agar dilution test, MIC, Str. pyogenes 308 A; conditions: Streptococcus pyogenes, Mueller Hinton agar, 16 to 18 hours, 37° C., read-out: Minimum Inhibitory Concentration
Experimental: as §1, §2

Staph. aureus 285 = test: agar dilution test, MIC, Staph. aureus 285; conditions: Staphylococcus aureus, Mueller Hinton agar, 16 to 18 hours, 37° C., read-out: Minimum Inhibitory Concentration
Experimental: as §1, §2

Kl. aerog. 1522 E = test: agar dilution test, MIC, Kl. aerog. 1522 E; conditions: Mueller Hinton agar, 16 to 18 hours, 37° C., read-out: Minimum Inhibitory Concentration
Experimental: as §1, §2

Bac. subtilis ATCC 6633 = test: agar dilution test, MIC, Bac. subtilis ATCC 6633; conditions: Bacillus subtilis, ATCC6633, Mueller Hinton agar, 16 to 18 hours, 37° C., read-out: Minimum Inhibitory Concentration
Experimental: as §1, §2

E. coli 1507 E = test: agar dilution test, MIC, E. coli 1507 E; conditions: Escherichia coli, Mueller Hinton agar, 16 to 18 hours, 37° C., read-out: Minimum Inhibitory Concentration
Experimental: as §1, §2

E. coli 055 = test: agar dilution test, MIC, E. coli 055; conditions: Escherichia coli, Mueller Hinton agar, 16 to 18 hours, 37° C., read-out: Minimum Inhibitory Concentration
Experimental: as §1, §2

Str. pyogenes 77A = test: agar dilution test, MIC, Str. pyogenes 77A; conditions: Streptococcus pyogenes, Mueller Hinton agar, 16 to 18 hours, 37° C., read-out: Minimum Inhibitory Concentration
Experimental: as §1, §2

E. coli DC2 = test: agar dilution test, MIC, E. coli DC2; conditions: Escherichia coli, Mueller Hinton agar, 16 to 18 hours, 37° C., read-out: Minimum Inhibitory Concentration
Experimental: as §1, §2

C[C@@H](O)[C@H]1C(=O)N2C(C(=O)O)=C(Oc3ccc(C(N)=O)cc3)S[C@H]12 [Ra = 4-CONH2, 5R-3-(4-carbamoylphenoxy)-6S-(1R-hydroxyethyl)-7-oxo-4-thia-1-azabicyclo[3,2,0]hept-2-ene-2-carboxylate]
antibacterial activity versus the corresponding unsubstituted 3-phenoxy compound [1]: greater antibacterial activity | MIC (Ent. cloacae 1321 E): 0.78 µg/mL (≈ 2.23 µM) | MIC (Salm. typhimurium MZ II): 0.78 µg/mL (≈ 2.23 µM) | MIC (Kl. aerog. 1082 E): 0.39 µg/mL (≈ 1.11 µM) | MIC (Staph. aureus SG 511): 0.05 µg/mL (≈ 0.143 µM) | MIC (Str. faecium D): 6.25 µg/mL (≈ 17.8 µM) | MIC (E. coli TEM): 0.39 µg/mL (≈ 1.11 µM) | MIC (E. coli KN 126): 0.39 µg/mL (≈ 1.11 µM) | MIC (Staph. aureus 503): 0.1 µg/mL (≈ 0.285 µM) | MIC (Str. pyogenes 308 A): 0.025 µg/mL (≈ 0.0714 µM) | MIC (Staph. aureus 285): 0.1 µg/mL (≈ 0.285 µM) | MIC (Kl. aerog. 1522 E): 0.78 µg/mL (≈ 2.23 µM) | MIC (Bac. subtilis ATCC 6633): 0.05 µg/mL (≈ 0.143 µM) | MIC (E. coli 1507 E): 0.39 µg/mL (≈ 1.11 µM) | MIC (E. coli 055): 0.19 µg/mL (≈ 0.542 µM) | MIC (Str. pyogenes 77A): 0.05 µg/mL (≈ 0.143 µM) | MIC (E. coli DC2): 0.78 µg/mL (≈ 2.23 µM)
